Data taken from paper PMC4391372 (Journal of agricultural and food chemistry, 2011).

molecular target: T1, hTAS2R31 (Homo sapiens, UniProt P59538); assay: HEK-293T cell-based receptor assay
T1 sequence (P59538 1-309): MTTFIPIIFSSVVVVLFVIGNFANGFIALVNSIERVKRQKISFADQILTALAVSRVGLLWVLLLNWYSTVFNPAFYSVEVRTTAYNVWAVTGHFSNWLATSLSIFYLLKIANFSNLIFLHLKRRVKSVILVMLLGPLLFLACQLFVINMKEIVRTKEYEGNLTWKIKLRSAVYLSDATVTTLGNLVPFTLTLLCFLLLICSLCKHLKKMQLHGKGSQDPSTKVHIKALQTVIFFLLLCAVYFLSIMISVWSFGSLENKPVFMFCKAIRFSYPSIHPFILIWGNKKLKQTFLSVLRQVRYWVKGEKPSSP

Compound | IC50 [µM]
COc1cc(O)c2c(c1)O[C@H](c1ccc(O)cc1)CC2=O [compound 2, sakuranetin] | 5.5 ± 2.5
COc1cc2c(c(O)c1OC)C(=O)C[C@@H](c1ccc(O)cc1)O2 [compound 9, 6-methoxysakuranetin] | 10.2 ± 5.4
COc1cc(-c2cc(=O)c3c(O)c(OC)c(O)cc3o2)ccc1O [compound 10, jaceosidin] | 11.7 ± 6
